Legend:
EGFR^WT kinase = target: T1, EGFR^WT kinase (Homo sapiens, UniProt P00533); assay: EGFR^WT kinase assay (ULight peptide / Eu-PT66 antibody detection); type: biochemical
T1 construct: purchased Carna Biosciences 08-115
Excerpt: Reagents and consumables: ULight™-labeled Ploy GT Peptide (Perkin Elmer, Cat. No. TRF-0100-M); ULight™-labeled JAK-1 (Try1023) Peptide (Perkin Elmer, Cat. No. TRF-0121-M); Eu-W1024-labeled Anti-Phosphotyrosine Antibody (PT66) (Perkin Elmer, Cat. No. AD0068); 10×Detection Buffer (Perkin Elmer, Cat. No. CR97-100); HER2 Kinase (Carna Biosciences, Cat. No. 08-016); EGFR kinase (Carna Biosciences, Cat. No. 08-115); HEPES (GIBCO, Cat. No. 15630-080); EGTA (Sigma, Cat. No. 03777-10G); EDTA (Sigma, Cat. No. EDS-100G); MgCl2 (Sigma, Cat. No. 63069-100ML); DTT (Sigma, Cat. No. 43816-10ML); Tween-20 (Sigma, Cat. No. P7949-100ML); DMSO (Life Science, Cat. No. 0231-500ML); 384-well plates (Perkin Elmer, Cat. No. 607290); multifunctional plate reader (Perkin Elmer, Cat. No. Envision)
Preparation of compound solution: The assay compound was dissolved in DMSO to form a 10 mM stock solution. Prior to use, the compound was diluted to 0.25 mM in DMSO (100 times the final concentration of the diluent) and then subjected to a 3-fold concentration gradient dilution to obtain a total of 11 concentrations. The solution was diluted with buffer to a diluent with 4× the final concentration when the drug was added.
EGFR^WT kinase assay: buffer was prepared, and 3.48 nM 4× EGFR kinase solution, 600 μM 4× ATP solution, and 400 nM 4×ULight™-labeled JAK-1 (Try1023) Peptide substrate solution was prepared using the buffer. After the preparation was completed, the enzyme was mixed with different concentrations of compounds pre-prepared by dilution, and the mixture was left to stand at room temperature for 5 min. Each concentration was performed in duplicate. The corresponding substrate and ATP were added and the mixture was reacted at room temperature for 120 minutes (with negative and positive controls). After completion of the reaction, PT66 detection antibody was added. The mixture was incubated at room temperature for 60 minutes, and then detected by Envision.
Data Calculation: the reading of well and inhibition rate were calculated using Excel, wherein reading of well=10000*(well EU665 value)/(well EU615 value), and inhibition rate=[(reading of positive control well−reading of assay well)/(reading of positive control well−reading of negative control well)]*100%. Compound concentrations and corresponding inhibition rates were input into GraphPad Prism for processing to calculate IC50 values.

HCC-827 cells = assay: Inhibition of cell proliferation, CTG method, HCC-827; type: cell-based; conditions: Homo sapiens, HCC827, 72 hours
Excerpt: (§1) The present application examined the in vitro anti-proliferative activity of the compounds of the present disclosure against in vitro cultured HCC-827, Ba/F3-EGFR-VIII and Ba/F3 EGFR D770_N771insSVD cell lines by CTG method.
(§2) Reagents and consumables: RPMI1640 (ThermoFisher, Cat. No. C11875500BT); DMEM (ThermoFisher, C11995500BT); fetal bovine serum (Hyclone, Cat. No. SV30087.03); 0.25% trypsin-EDTA (ThermoFisher, Cat. No. 25200072); penicillin-streptomycin (Hyclone, Cat. No. SV30010); DMSO (Life Science, Cat. No. 0231-500ML); CTG assay kit (Promega, Cat. No. G9243); 96-well plate (Corning, Cat. No. 3599); multifunctional plate reader (Perkin Elmer, Cat. No. Envision)
(§3) Cell lines: HCC-827 (from ATCC), Ba/F3-EGFR-VIII and Ba/F3 EGFR D770_N771insSVD (all from KYinno Biotechnology (Beijing) Co., Ltd.); all of the above cells were cultured with RPMI1640 medium containing 10% fetal bovine serum, 100 U/mL penicillin, and 100 μg/mL streptomycin in the culture process, and HCC-827 was cultured with DMEM medium containing 10% fetal bovine serum, 100 U/mL penicillin, and 100 μg/mL streptomycin.
(§4) • 1. The assay compound was dissolved with DMSO to form a stock solution and a gradient dilution was performed, followed by dilution with the corresponding medium to obtain a solution with 5-fold working concentration. • 2. Cells in logarithmic growth phase were adjusted to specific cell densities by dilution with culture medium, and 80 μL of cell suspension was added to a 96-well plate, such that plating densities of cells of HCC-827, Ba/F3-EGFR-VIII and Ba/F3 EGFR D770_N771insSVD were all 3000 cells/well. The cells of Ba/F3-EGFR-VIII and Ba/F3 EGFR D770_N771insSVD were used directly in the next step (treatment with compound), whereas the HCC-827 needed to be cultured overnight in a 37° C., 5% carbon dioxide gas incubator to adhere to the wall, and then treated with compounds. • 3. 20 μL of compound solution was added to each well of the 96-well plate that had been inoculated with cells. The highest concentration of the assayed compound was 10 μM, 4-fold serial dilution, a total of 9 concentrations, and duplicate wells. A control group without compound was also set up. • 4. The cells were cultured for another 72 hours, and then cell viability was detected by CTG assay kit. Signal values were read with a multifunctional plate reader (Perkin Elmer). GraphPad Prism software was used to create a dose-response curve and IC50 was calculated.

Ba/F3-EGFR-VIII cells = Ba/F3-EGFR-VIII cells (Homo sapiens, UniProt P00533, DELINS30-297G, cells depend on it); assay: Inhibition of cell proliferation, CTG method, Ba/F3-EGFR-VIII; type: cell-based; conditions: 72 hours, read-out: Ba/F3 EGFRvIII IC50
Chain of Ba/F3-EGFR-VIII cells (P00533 with tags, fused parts or gaps DELINS30-297G): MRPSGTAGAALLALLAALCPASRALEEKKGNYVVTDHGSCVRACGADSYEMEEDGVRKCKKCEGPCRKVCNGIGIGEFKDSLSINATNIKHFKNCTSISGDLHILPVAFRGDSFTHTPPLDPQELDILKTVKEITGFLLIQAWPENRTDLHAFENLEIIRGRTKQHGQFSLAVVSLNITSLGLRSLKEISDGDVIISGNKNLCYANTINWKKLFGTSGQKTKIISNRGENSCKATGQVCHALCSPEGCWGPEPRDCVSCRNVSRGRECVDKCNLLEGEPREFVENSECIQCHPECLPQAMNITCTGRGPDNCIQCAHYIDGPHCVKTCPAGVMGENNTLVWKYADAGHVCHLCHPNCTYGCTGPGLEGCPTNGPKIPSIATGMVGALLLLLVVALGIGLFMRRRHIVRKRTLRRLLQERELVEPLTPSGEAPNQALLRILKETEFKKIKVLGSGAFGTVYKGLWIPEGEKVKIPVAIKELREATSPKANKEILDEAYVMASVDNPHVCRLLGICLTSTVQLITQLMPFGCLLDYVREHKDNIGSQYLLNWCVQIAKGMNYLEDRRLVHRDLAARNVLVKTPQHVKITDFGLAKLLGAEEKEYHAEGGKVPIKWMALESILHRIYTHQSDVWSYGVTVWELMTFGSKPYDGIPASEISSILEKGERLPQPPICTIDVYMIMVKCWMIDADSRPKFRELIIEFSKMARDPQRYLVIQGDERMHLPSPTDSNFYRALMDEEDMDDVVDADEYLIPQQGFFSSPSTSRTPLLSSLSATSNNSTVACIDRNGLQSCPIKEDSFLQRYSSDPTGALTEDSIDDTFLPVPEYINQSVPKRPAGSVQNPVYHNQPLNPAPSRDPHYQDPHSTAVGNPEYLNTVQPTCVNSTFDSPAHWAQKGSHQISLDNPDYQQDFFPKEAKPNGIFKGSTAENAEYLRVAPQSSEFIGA
Excerpt: as §1, §2, §3, §4

T1 sequence (P00533 25-1210): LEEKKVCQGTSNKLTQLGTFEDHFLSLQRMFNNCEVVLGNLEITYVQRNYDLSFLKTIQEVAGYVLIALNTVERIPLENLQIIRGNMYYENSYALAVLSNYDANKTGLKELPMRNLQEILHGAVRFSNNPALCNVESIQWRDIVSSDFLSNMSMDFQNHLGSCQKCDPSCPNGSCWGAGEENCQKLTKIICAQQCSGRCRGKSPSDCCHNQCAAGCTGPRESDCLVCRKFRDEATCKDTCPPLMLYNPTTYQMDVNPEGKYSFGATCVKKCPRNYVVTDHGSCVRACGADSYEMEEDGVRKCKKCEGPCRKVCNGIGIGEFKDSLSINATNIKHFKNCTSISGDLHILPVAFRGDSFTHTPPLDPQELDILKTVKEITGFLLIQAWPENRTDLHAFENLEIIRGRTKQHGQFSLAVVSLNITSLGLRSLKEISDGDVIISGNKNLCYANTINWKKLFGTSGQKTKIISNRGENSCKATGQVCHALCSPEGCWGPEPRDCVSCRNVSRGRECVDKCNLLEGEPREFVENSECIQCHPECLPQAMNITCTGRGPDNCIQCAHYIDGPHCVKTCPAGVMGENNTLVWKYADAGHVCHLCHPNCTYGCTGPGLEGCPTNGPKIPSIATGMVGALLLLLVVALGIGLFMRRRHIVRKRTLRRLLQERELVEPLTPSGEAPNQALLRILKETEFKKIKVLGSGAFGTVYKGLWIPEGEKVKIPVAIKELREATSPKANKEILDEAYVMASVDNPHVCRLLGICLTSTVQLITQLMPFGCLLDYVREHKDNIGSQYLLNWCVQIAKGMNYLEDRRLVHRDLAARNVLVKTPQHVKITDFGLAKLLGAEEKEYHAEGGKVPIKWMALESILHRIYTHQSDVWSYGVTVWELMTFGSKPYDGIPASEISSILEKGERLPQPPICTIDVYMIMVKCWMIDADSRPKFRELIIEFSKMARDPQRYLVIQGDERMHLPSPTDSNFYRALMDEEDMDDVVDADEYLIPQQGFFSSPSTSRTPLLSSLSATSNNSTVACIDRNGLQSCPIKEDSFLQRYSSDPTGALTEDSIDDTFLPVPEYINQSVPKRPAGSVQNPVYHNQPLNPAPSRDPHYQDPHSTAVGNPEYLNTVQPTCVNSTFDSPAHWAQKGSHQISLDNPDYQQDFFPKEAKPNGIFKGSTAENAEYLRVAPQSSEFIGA

Compound: COc1c(NC(=O)/C=C/CN(C)C)ccc2ncnc(Nc3cccc(Cl)c3F)c12 [Example 1, (E)-N-(4-((3-chloro-2-fluorophenyl)amino)-5-methoxyquinazolin-6-yl)-4-(dimethylamino)but-2-enamide]
- IC50 (EGFR^WT kinase): ≤ 1 nM
- IC50 (HCC-827 cells): ≤ 5 nM
- GI50 (Ba/F3-EGFR-VIII cells): ≤ 5 nM

— patent US20240400521A1, “QUINAZOLINE COMPOUND, COMPOSITION, AND APPLICATION THEREOF” (BEIJING SCITECH-MQ PHARMACEUTICALS LIMITED, priority 2021, published 2024)
